Counter-ions that a name gives are not always drawn. Like-named read-outs stand apart in the source and are kept apart here.
Tests used:
[1] = Bulk density (poured and tapped) of drug powders and processing aid; format: physicochemical; details: for Tapped Bulk Densities: entries with asterisk: Bulk Densities performed at PRC
[2] = entries without asterisk (not marked as performed at PRC); cited from earlier work

Molecule | bulk density ([1]; powder used in the examples) | Tapped Bulk Densities [1] [g/mL] | other results
CC(=O)Nc1ccc(O)cc1 [Acetaminophen] | about 0.42 g/ml | – | –
Cn1c(=O)c2[nH]cnc2n(C)c1=O [Aminophylline USP, Aminophylline] | – | 0.62 | –
O=C(O)Cc1ccccc1Nc1c(Cl)cccc1Cl [Diclofenac Sodium] | – | 0.31 | –
CCN(CC)CCNC(=O)c1cc(Cl)c(N)cc1OC [Metoclopramide HCL] | about 0.5 g/ml | – | Tapped Bulk Densities [2]: 0.5 g/mL
O=C1O[C@H]([C@@H](O)CO)C([O-])=C1O.[Na+] [Sodium Ascorbate USP, Sodium Ascorbate] | – | 0.66 | –
Cn1c(=O)c2[nH]cnc2n(C)c1=O [Theophylline Anhydrous] | – | 0.44 | –
COc1cccc(C2(O)CCCCC2CN(C)C)c1 (stereo not shown) [Tramadol HCL] | about 0.42 g/ml | 0.42 | –
O.OC[C@H]1O[C@@H](O[C@H]2[C@H](O)[C@@H](O)[C@@H](O)O[C@@H]2CO)[C@H](O)[C@@H](O)[C@H]1O [lactose hydrous impalpable] | 0.56 g/mL | – | tapped bulk density ([1]; powder used in the examples): about 0.64 g/ml
Codeine Sulfate [Codeine Sulfate USP Medium Crystals Fine] | about 0.6 g/ml | – | –
Doxycycline Metaphosphate Sodium Complex | – | – | Tapped Bulk Densities [2]: 0.49 g/mL
